Drawing on patent US11596639B2, “Substituted indole Mcl-1 inhibitors” (Vanderbilt University, priority 2016, dated 2023), this text covers Ki and GI50 for twelve molecules.

Each structure is given as a SMILES string. Where two headings read alike, the source gives them in different places.

One experiment deals with Mcl-1 (Homo sapiens (Human), UniProt Q07820). Briefly: TR-FRET binding assay, FITC-Bak peptide and MBP-tagged Mcl-1. As to conditions: read-out: Ki for Inhibition of Mcl-1 by TR-FRET assay. The protocol: Compounds are diluted in DMSO in a 16-point, semilog serial dilution scheme. […] The plate was mixed and incubated for 3 hours at room temperature. […] TR-FRET signal is plotted and IC50 and Ki values are calculated in the same manner as the fluorescence polarization anisotropy based competition assays.
Chain of Mcl-1 (Q07820 172-327): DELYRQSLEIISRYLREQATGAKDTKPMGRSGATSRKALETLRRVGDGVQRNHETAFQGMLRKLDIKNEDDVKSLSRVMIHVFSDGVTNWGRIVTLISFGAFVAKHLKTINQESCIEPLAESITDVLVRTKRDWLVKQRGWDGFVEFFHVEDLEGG
For orientation: In TR-FRET formats the signal depends on donor and acceptor labels being close together.

For experiment [1], the system named is H929 human cancer cell lines. Briefly: Cellular viability / proliferation (Cell TiterGlo, 72 h). Type of experiment: cell-based. Put shortly:
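H929 cells plated at 1,000/well in 10% FBS medium received a 2-fold serial compound dilution (top 50 μM, DMSO <1%) 24 h later. After 72 h, viability was read by CellTiter-Glo luminescence. IC50 came from a four-parameter fit.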
Background: In ATP-based viability assays light output follows the ATP content of the culture.

Setting [2] is: Homo sapiens, NCI-H929, 72 h, read-out: GI50 on cellular proliferation of H929 human cancer cell lines, H929 cells, 72 h, Cell TiterGlo, 10% FBS.

As a reminder, the Ki is a measure of affinity in units of concentration, obtained from inhibition or displacement. In the case of `Cc1cc(OCCCc2c3n(c4c(-c5c(C)nn(C)c5C)c(Cl)ccc24)[C@H](C)CN(c2cc(OC(F)(F)F)cc4cc(C(=O)O)n(C)c24)C3=O)cc(C)c1Cl` [Example 479, (R)-7-(7-chloro-10-(3-(4-chloro-3,5-dimethylphenoxy)propyl)-4-methyl-1-oxo-6-(1,3,5-trimethyl-1H-pyrazol-4-yl)-3,4-dihydropyrazino[1,2-a]indol-2(1H)-yl)-1-methyl-5-(trifluoromethoxy)-1H-indole-2-carboxylic acid], the Ki at Mcl-1 is 0.95 nM. Besides, the GI50 in experiment [1] (setting [2]) was determined as 1500 nM.

Turning to `Cc1ccnc(Cn2cc(C(=O)O)c3cccc(N4C[C@@H](C)n5c(c(CCCOc6cc(C)c(Cl)c(C)c6)c6ccc(Cl)c(-c7c(C)nn(C)c7C)c65)C4=O)c32)c1` [Example 480, (R)-7-(7-Chloro-10-(3-(4-chloro-3,5-dimethylphenoxy)propyl)-4-methyl-1-oxo-6-(1,3,5-trimethyl-1H-pyrazol-4-yl)-3,4-dihydropyrazino[1,2-a]indol-2(1H)-yl)-1-((4-methylpyridin-2-yl)methyl)-1H-indole-3-carboxylic acid], the inhibition constant Ki on Mcl-1 was less than 0.2 nM. The GI50 in experiment [1] (setting [2]) is 250 nM.

Turning to `Cc1cc(OCCCc2c3n(c4c(-c5c(C)nn(C)c5C)c(Cl)ccc24)[C@H](C)CN(c2cc(OCc4ccccn4)cc4cc(C(=O)O)n(C)c24)C3=O)cc(C)c1Cl` [Example 481, (R)-7-(7-Chloro-10-(3-(4-chloro-3,5-dimethylphenoxy)propyl)-4-methyl-1-oxo-6-(1,3,5-trimethyl-1H-pyrazol-4-yl)-3,4-dihydropyrazino[1,2-a]indol-2(1H)-yl)-1-methyl-5-(pyridin-2-ylmethoxy)-1H-indole-2-carboxylic acid], at Mcl-1, the inhibition constant Ki was less than 0.2 nM. Further, in experiment [1] (setting [2]), the GI50 was 240 nM.

For `COc1ccc(N2C[C@@H](C)n3c(c(CCCOc4cc(C)c(Cl)c(C)c4)c4ccc(Cl)c(-c5c(C)nc(CN(C)C)nc5C)c43)C2=O)c2c1cc(C(=O)O)n2Cc1ccccn1` [Example 482, (R)-7-(7-Chloro-10-(3-(4-chloro-3,5-dimethylphenoxy)propyl)-6-(2-((dimethylamino)methyl)-4,6-dimethylpyrimidin-5-yl)-4-methyl-1-oxo-3,4-dihydropyrazino[1,2-a]indol-2(1H)-yl)-4-methoxy-1-(pyridin-2-ylmethyl)-1H-indole-2-carboxylic acid], at Mcl-1, the Ki was less than 0.2 nM. For the same molecule, the GI50 in experiment [1] (setting [2]) came out at 340 nM.

As for `COc1ccc(N2C[C@@H](C)n3c(c(CCCOc4cc(C)c(Cl)c(C)c4)c4ccc(Cl)c(-c5c(C)nc(CN(C)C)nc5C)c43)C2=O)c2c1cc(C(=O)O)n2C` [Example 483, (R)-7-(7-Chloro-10-(3-(4-chloro-3,5-dimethylphenoxy)propyl)-6-(2-((dimethylamino)methyl)-4,6-dimethylpyrimidin-5-yl)-4-methyl-1-oxo-3,4-dihydropyrazino[1,2-a]indol-2(1H)-yl)-4-methoxy-1-methyl-1H-indole-2-carboxylic acid], the Ki on Mcl-1 was less than 0.2 nM. Also, the GI50 in experiment [1] (setting [2]) came out at 280 nM.

`Cc1ccnc(Cn2cc(C(=O)O)c3cccc(N4C[C@@H](C)n5c(c(CCCOc6cc(C)c(Cl)c(C)c6)c6ccc(Cl)c(-c7c(C)nn(C)c7C)c65)C4=O)c32)c1` [Example 484, (R)-7-(7-Chloro-10-(3-(4-chloro-3,5-dimethylphenoxy)propyl)-4-methyl-1-oxo-6-(1,3,5-trimethyl-1H-pyrazol-4-yl)-3,4-dihydropyrazino[1,2-a]indol-2(1H)-yl)-1-((4-methylpyridin-2-yl)methyl)-1H-indole-3-carboxylic acid]: on Mcl-1, the Ki is less than 0.2 nM. In experiment [1] (read-out: GI50 on cellular proliferation of H929 human cancer cell lines, H929 cells, 72 h, Cell TiterGlo, 10% FBS), the GI50 was found to be 310 nM.

For `Cc1cc(OCCCc2c3n(c4c(-c5c(C)nn(C)c5C)c(Cl)ccc24)[C@H](C)CN(c2cc(OCC4CC4)cc4cc(C(=O)O)n(C)c24)C3=O)cc(C)c1Cl` [Example 485, (R)-7-(7-Chloro-10-(3-(4-chloro-3,5-dimethylphenoxy)propyl)-4-methyl-1-oxo-6-(1,3,5-trimethyl-1H-pyrazol-4-yl)-3,4-dihydropyrazino[1,2-a]indol-2(1H)-yl)-5-(cyclopropylmethoxy)-1-methyl-1H-indole-2-carboxylic acid], the Ki at Mcl-1 was 0.35 nM. Also, the GI50 in experiment [1] (setting [2]) worked out at 410 nM.

Take `Cc1cc(OCCCc2c3n(c4c(-c5c(C)nn(C)c5C)c(Cl)ccc24)[C@H](C)CN(c2cc(NCCN4CCCC4)cc4c(C(=O)O)cn(C)c24)C3=O)cc(C)c1Cl` [Example 486, (R)-7-(7-Chloro-10-(3-(4-chloro-3,5-dimethylphenoxy)propyl)-4-methyl-1-oxo-6-(1,3,5-trimethyl-1H-pyrazol-4-yl)-3,4-dihydropyrazino[1,2-a]indol-2(1H)-yl)-1-methyl-5-((2-(pyrrolidin-1-yl)ethyl)amino)-1H-indole-3-carboxylic acid]: the Ki on Mcl-1 was 1.4 nM. Moreover, the GI50 in experiment [1] (setting [2]) is 2900 nM.

Consider `Cc1cc(OCCCc2c3n(c4c(-c5c(C)nn(C)c5C)c(Cl)ccc24)[C@H](C)CN(c2cc(OCc4cccnc4)cc4cc(C(=O)O)n(C)c24)C3=O)cc(C)c1Cl` [Example 487, (R)-7-(7-Chloro-10-(3-(4-chloro-3,5-dimethylphenoxy)propyl)-4-methyl-1-oxo-6-(1,3,5-trimethyl-1H-pyrazol-4-yl)-3,4-dihydropyrazino[1,2-a]indol-2(1H)-yl)-1-methyl-5-(pyridin-3-ylmethoxy)-1H-indole-2-carboxylic acid], for which the inhibitory constant (Ki) on Mcl-1 was found to be 0.23 nM. The GI50 in experiment [1] (setting [2]) is 280 nM.

Turning to `Cc1cc(OCCCc2c3n(c4c(-c5c(C)cc(O)cc5C)c(Cl)ccc24)[C@H](C)CNC3=O)cc(C)c1Cl` [Example 488, (R)-7-chloro-10-(3-(4-chloro-3,5-dimethylphenoxy)propyl)-6-(4-hydroxy-2,6-dimethylphenyl)-4-methyl-3,4-dihydropyrazino[1,2-a]indol-1(2H)-one], the Ki at Mcl-1 came out at 39 nM. The GI50 in experiment [1] (setting [2]) stood at 8700 nM.

In the case of `Cc1cc(OCCCc2c3n(c4c(-c5c(C)nn(C)c5C)c(Cl)ccc24)[C@H](C)CN(c2cn(C)c4ccc(C(=O)O)nc24)C3=O)cc(C)c1Cl` [Example 489, (R)-3-(7-Chloro-10-(3-(4-chloro-3,5-dimethylphenoxy)propyl)-4-methyl-1-oxo-6-(1,3,5-trimethyl-1H-pyrazol-4-yl)-3,4-dihydropyrazino[1,2-a]indol-2(1H)-yl)-1-methyl-1H-pyrrolo[3,2-b]pyridine-5-carboxylic acid], the Ki at Mcl-1 is less than 0.2 nM. Further, in experiment [1] (setting [2]), the GI50 is less than 200 nM.

Regarding `Cc1cc(OCCCc2c3n(c4c(-c5c(C)nn(C)c5C)c(Cl)ccc24)[C@H](C)CN(c2cc(CN4CCN(C)CC4)cc4c(C(=O)O)cn(C)c24)C3=O)cc(C)c1Cl` [Example 490, (R)-7-(7-Chloro-10-(3-(4-chloro-3,5-dimethylphenoxy)propyl)-4-methyl-1-oxo-6-(1,3,5-trimethyl-1H-pyrazol-4-yl)-3,4-dihydropyrazino[1,2-a]indol-2(1H)-yl)-1-methyl-5-((4-methylpiperazin-1-yl)methyl)-1H-indole-3-carboxylic acid], on Mcl-1, the inhibition constant Ki was found to be 0.29 nM. The GI50 in experiment [1] (setting [2]) worked out at 810 nM.
